Measured values as given in BindingDB's records for doi:10.7270/Q2VT1QQ4 (Burnham Center For Chemical Genomics, 2012).

Molecular target: T1, Xylosyl- and glucuronyltransferase LARGE1 (Homo sapiens, UniProt O95461)
T1 sequence (O95461 whole entry): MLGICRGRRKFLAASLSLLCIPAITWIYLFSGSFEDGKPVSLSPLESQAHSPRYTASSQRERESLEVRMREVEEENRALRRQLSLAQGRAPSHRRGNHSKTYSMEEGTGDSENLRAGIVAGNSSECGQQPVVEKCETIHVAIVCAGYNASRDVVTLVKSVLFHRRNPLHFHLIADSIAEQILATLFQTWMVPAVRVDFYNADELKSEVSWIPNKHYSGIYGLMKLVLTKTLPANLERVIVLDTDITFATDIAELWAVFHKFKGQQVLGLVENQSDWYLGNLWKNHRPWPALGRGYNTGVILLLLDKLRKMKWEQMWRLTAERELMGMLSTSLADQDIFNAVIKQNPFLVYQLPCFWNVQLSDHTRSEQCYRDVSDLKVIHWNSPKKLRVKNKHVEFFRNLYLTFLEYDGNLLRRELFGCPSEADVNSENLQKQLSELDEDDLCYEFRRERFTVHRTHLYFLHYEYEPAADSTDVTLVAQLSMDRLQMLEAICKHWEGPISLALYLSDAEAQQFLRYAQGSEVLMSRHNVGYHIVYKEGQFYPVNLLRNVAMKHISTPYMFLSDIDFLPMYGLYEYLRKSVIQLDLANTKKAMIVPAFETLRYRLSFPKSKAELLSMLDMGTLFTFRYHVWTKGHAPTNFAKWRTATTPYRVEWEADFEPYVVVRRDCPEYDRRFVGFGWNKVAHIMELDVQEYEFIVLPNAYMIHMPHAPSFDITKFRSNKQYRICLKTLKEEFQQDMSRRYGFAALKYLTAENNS

- EC50: 4.97 µM
SMILES: Oc1c(Cl)c(N=Cc2ccco2)c(O)c2ccccc12 [2-chloranyl-3-(furan-2-ylmethylamino)naphthalene-1,4-dione]
